# Source: ChEMBL document CHEMBL6114940, “Exploring the pharmaceutical potential of ammonium organotrifluoroborate functional group: Comprehensive chemical, metabolic, and plasma stability evaluation” (Eur J Med Chem, 2024)
# Active and inactive are the calls of the source. The rule behind the calls is not given here.
# Tests used:
# Fibroblast [1] = test: Cytotoxicity against human fibroblast assessed as reduction in cell viability at 0.1 to 300 uM incubated for 24 to 48 hrs by MTT assay; type: toxicity, cell-based; details: dose lower 0.1 µM, time lower 24 hrs, dose upper 300 µM, time upper 48 hrs
# [2] = Stability of compound in 0.05 M HCL assessed as half life incubated for 72 hrs by LC-MS analysis; type: physicochemical
# Fibroblast [3] = test: Cytotoxicity against human fibroblast assessed as reduction in cell viability upto 100 uM incubated for 24 to 72 hrs by MTT assay; type: toxicity, cell-based; details: time 24-72 hrs
# A-375 [4] = test: Cytotoxicity against human A-375 assessed as reduction in cell viability at 300 uM incubated for 24 to 72 hrs by MTT assay relative to control; type: functional; details: time 24-72 hrs
# [5] = Stability of compound in 0.5 M NaOH assessed as N,N,N-trimethyl-1-(1-((3R,4R,5S,6R)-2,4,5-trihydroxy-6-(hydroxymethyl)tetrahydro-2H-pyran-3-yl)-1H-1,2,3-triazol-4-yl)methanaminium formation incubated for 72 hrs by LC-MS analysis; type: physicochemical
# [6] = Stability of compound in 0.9 % saline solution assessed as 1-borono-N,N-dimethyl-N-((1-((3R,4R,5S,6R)-2,4,5-trihydroxy-6-(hydroxymethyl)tetrahydro-2H-pyran-3-yl)-1H-1,2,3-triazol-4-yl)methyl)methanaminium formation incubated for 72 hrs by LC-MS analysis; type: physicochemical; details: buffer
# [7] = Stability of compound in 0.5 M NaOH assessed as 1-borono-N,N-dimethyl-N-((1-((3R,4R,5S,6R)-2,4,5-trihydroxy-6-(hydroxymethyl)tetrahydro-2H-pyran-3-yl)-1H-1,2,3-triazol-4-yl)methyl)methanaminium formation incubated for 72 hrs by LC-MS analysis; type: physicochemical
# A-375 [8] = test: Cytotoxicity against human A-375 assessed as reduction in cell viability upto 100 uM incubated for 24 to 72 hrs by MTT assay; type: functional, cell-based; details: time 24-72 hrs
# [9] = Stability of compound in 0.05 M HCL assessed as 1-borono-N,N-dimethyl-N-((1-((3R,4R,5S,6R)-2,4,5-trihydroxy-6-(hydroxymethyl)tetrahydro-2H-pyran-3-yl)-1H-1,2,3-triazol-4-yl)methyl)methanaminium formation incubated for 72 hrs by LC-MS analysis; type: physicochemical; details: buffer
# U-87 MG [10] = test: Cytotoxicity against human U-87 MG assessed as reduction in cell viability upto 100 uM incubated for 24 to 72 hrs by MTT assay; type: functional, cell-based; details: U-87MG ATCC, time 24-72 hrs
# Fibroblast [11] = test: Cytotoxicity against human fibroblast assessed as reduction in cell viability at 300 uM incubated for 24 to 72 hrs by MTT assay relative to control; type: toxicity, cell-based; details: time 24-72 hrs
# U-87 MG [12] = test: Cytotoxicity against human U-87 MG assessed as reduction in cell viability at 300 uM incubated for 24 to 72 hrs by MTT assay relative to control; type: functional, U-87MG ATCC; details: time 24-72 hrs
# [13] = Stability of compound at pH 7.5 in phosphate buffer at 2 mg/ml; type: physicochemical
# A-375 [14] = test: Cytotoxicity against human A-375 assessed as reduction in cell viability at 0.1 to 300 uM incubated for 24 to 48 hrs by MTT assay; type: functional, cell-based; details: dose 0.1-300 µM, time 24-48 hrs
# [15] = Stability of compound in 0.5 M NaOH assessed as half life incubated for 72 hrs by LC-MS analysis; type: physicochemical
# [16] = Stability of compound in 20 mM CH3COONH4 buffer at pH 5.8 assessed as 1-borono-N,N-dimethyl-N-((1-((3R,4R,5S,6R)-2,4,5-trihydroxy-6-(hydroxymethyl)tetrahydro-2H-pyran-3-yl)-1H-1,2,3-triazol-4-yl)methyl)methanaminium formation incubated for 72 hrs by LC-MS analysis; type: physicochemical; details: pH 5.8, 72 h
# U-87 MG [17] = test: Cytotoxicity against human U-87 MG assessed as reduction in cell viability at 0.1 to 300 uM incubated for 24 to 48 hrs by MTT assay; type: functional, cell-based; details: U-87MG ATCC, dose 0.1-300 µM, time 24-48 hrs
# [18] = Stability of compound in 0.9 % saline solution assessed as solvolysis constant (K) incubated for 72 hrs by LC-MS analysis; type: physicochemical; details: buffer
# [19] = Stability of compound in 50 mM Tris-HCL buffer at pH 7.4 assessed as solvolysis constant (K) incubated for 72 hrs by LC-MS analysis; type: physicochemical; details: pH 7.4, 72 h
# [20] = Stability in mouse plasma measured after 1 hr by LC-HRMS analysis; type: ADME, cell-free; details: read-out: Stability
# [21] = Stability of compound in 20 mM CH3COONH4 buffer at pH 5.8 assessed as half life incubated for 72 hrs by LC-MS analysis; type: physicochemical; details: 20 mM ammonium acetate (CH3COONH4) buffer
# [22] = Metabolic stability in mouse liver microsomes assessed as drug hydrolysis by measuring 1-borono-N,N-dimethyl-N-((1-((3R,4R,5S,6R)-2,4,5-trihydroxy-6-(hydroxymethyl)tetrahydro-2H-pyran-3-yl)-1H-1,2,3-triazol-4-yl)methyl)methanaminium formation incubated for 1 hrs by LC-MS/MS analysis; type: ADME, Microsome
# Fibroblast [23] = test: Cytotoxicity against human fibroblast assessed as reduction in cell viability at 0.1 to 300 uM incubated for 72 hrs by MTT assay; type: toxicity, cell-based; details: dose 0.1-300 µM
# [24] = Stability of compound in 20 mM CH3COONH4 buffer at pH 5.8 assessed as solvolysis constant (K) incubated for 72 hrs by LC-MS analysis; type: physicochemical; parameters: unit not given beside the values; details: pH 5.8, 72 h
# U-87 MG [25] = test: Cytotoxicity against human U-87 MG assessed as reduction in cell viability at 0.1 to 300 uM incubated for 72 hrs by MTT assay; type: functional, cell-based; details: U-87MG ATCC, dose 0.1-300 µM
# [26] = Stability of compound in 50 mM Tris-HCL buffer at pH 7.4 assessed as half life incubated for 72 hrs by LC-MS analysis; type: physicochemical
# A-375 [27] = test: Cytotoxicity against human A-375 assessed as reduction in cell viability at 0.1 to 300 uM incubated for 72 hrs by MTT assay; type: functional, cell-based; details: dose 0.1-300 µM
# [28] = Stability of compound in 50 mM Tris-HCL buffer at pH 7.4 assessed as 1-borono-N,N-dimethyl-N-((1-((3R,4R,5S,6R)-2,4,5-trihydroxy-6-(hydroxymethyl)tetrahydro-2H-pyran-3-yl)-1H-1,2,3-triazol-4-yl)methyl)methanaminium formation incubated for 72 hrs by LC-MS analysis; type: physicochemical; details: pH 7.4, 72 h
# [29] = Stability of compound in 0.9 % saline solution assessed as half life incubated for 72 hrs by LC-MS analysis; type: physicochemical
# [30] = Stability of compound in 0.3 % H2O2 assessed as (3R,4R,5S,6R)-3-(4-((dimethylamino)methyl)-1H-1,2,3-triazol-1-yl)-6-(hydroxymethyl)tetrahydro-2H-pyran-2,4,5-triol formation incubated for 1 hrs by LC-MS analysis; type: physicochemical
# [31] = Stability of compound in 0.5 M NaOH assessed as solvolysis constant (K) incubated for 72 hrs by LC-MS analysis; type: physicochemical; parameters: unit not given beside the values
# [32] = Stability of compound in 0.05 M HCL assessed as solvolysis constant (K) incubated for 72 hrs by LC-MS analysis; type: physicochemical; parameters: unit not given beside the values; details: buffer
# [33] = Stability of compound in phosphate/D2O buffer at pH 7.4 assessed as drug hydrolysis by measuring N-(boronomethyl)-N-butyl-N-(2-(2-(2-(((2R,3R,4S,5S,6R)-3,4,5-trihydroxy-6-(hydroxymethyl)tetrahydro-2H-pyran-2-yl)oxy)ethoxy)ethoxy)ethyl)butan-1-aminium formation incubated for 72 hrs by LC-MS analysis; type: physicochemical; details: pH 7.4, 72 h
# [34] = Stability of compound in 0.9 % saline solution assessed as N-(boronomethyl)-N-butyl-N-(2-(2-(2-(((2R,3R,4S,5S,6R)-3,4,5-trihydroxy-6-(hydroxymethyl)tetrahydro-2H-pyran-2-yl)oxy)ethoxy)ethoxy)ethyl)butan-1-aminium formation incubated for 72 hrs by LC-MS analysis; type: physicochemical; details: buffer
# [35] = Stability of compound in Tris-HCL buffer at pH 7.4 assessed as N-(boronomethyl)-N-butyl-N-(2-(2-(2-(((2R,3R,4S,5S,6R)-3,4,5-trihydroxy-6-(hydroxymethyl)tetrahydro-2H-pyran-2-yl)oxy)ethoxy)ethoxy)ethyl)butan-1-aminium formation incubated for 72 hrs by LC-MS analysis; type: physicochemical; details: pH 7.4, 72 h
# [36] = Stability of compound in 0.5 M NaOH assessed as N-(boronomethyl)-N-butyl-N-(2-(2-(2-(((2R,3R,4S,5S,6R)-3,4,5-trihydroxy-6-(hydroxymethyl)tetrahydro-2H-pyran-2-yl)oxy)ethoxy)ethoxy)ethyl)butan-1-aminium formation incubated for 72 hrs by LC-MS analysis; type: physicochemical
# [37] = Stability of compound in 0.5 M NaOH assessed as N-butyl-N-methyl-N-(2-(2-(2-(((2R,3R,4S,5S,6R)-3,4,5-trihydroxy-6-(hydroxymethyl)tetrahydro-2H-pyran-2-yl)oxy)ethoxy)ethoxy)ethyl)butan-1-aminium formation incubated for 72 hrs by LC-MS analysis; type: physicochemical
# [38] = Stability of compound in 50 mM HCL assessed as N-(boronomethyl)-N-butyl-N-(2-(2-(2-(((2R,3R,4S,5S,6R)-3,4,5-trihydroxy-6-(hydroxymethyl)tetrahydro-2H-pyran-2-yl)oxy)ethoxy)ethoxy)ethyl)butan-1-aminium formation incubated for 72 hrs by LC-MS analysis; type: physicochemical; details: buffer
# [39] = Metabolic stability in mouse liver microsomes assessed as drug hydrolysis by measuring N-(boronomethyl)-N-butyl-N-(2-(2-(2-(((2R,3R,4S,5S,6R)-3,4,5-trihydroxy-6-(hydroxymethyl)tetrahydro-2H-pyran-2-yl)oxy)ethoxy)ethoxy)ethyl)butan-1-aminium formation incubated for 1 hr by LC-MS/MS analysis; type: ADME, Microsome
# [40] = Stability of compound in 20 mM CH3COONH4 buffer at pH 5.8 assessed as N-(boronomethyl)-N-butyl-N-(2-(2-(2-(((2R,3R,4S,5S,6R)-3,4,5-trihydroxy-6-(hydroxymethyl)tetrahydro-2H-pyran-2-yl)oxy)ethoxy)ethoxy)ethyl)butan-1-aminium formation incubated for 72 hrs by LC-MS analysis; type: physicochemical; details: pH 5.8, 72 h
# [41] = Stability of compound in 0.3 % H2O2 assessed as (2R,3R,4S,5S,6R)-2-(2-(2-(2-(dibutylamino)ethoxy)ethoxy)ethoxy)-6-(hydroxymethyl)tetrahydro-2H-pyran-3,4,5-triol formation incubated for 1 hrs by LC-MS analysis; type: physicochemical
smiles,measurement,setting,value
C[N+](C)(Cc1cn([C@@H]2[C@@H](O)[C@H](O)[C@@H](CO)O[C@@H]2O)nn1)C[B-](F)(F)F,Activity,Fibroblast [1],Non-toxic
same,half-life,[2],0.904 h
same,Activity,Fibroblast [3],Non-toxic
same,Activity,A-375 [4],-15%
same,Stability,[5],Stable
same,Stability,[6],Stable
same,Stability,[7],Stable
same,Activity,A-375 [8],Active
same,Stability,[9],Stable
same,Activity,U-87 MG [10],Active
same,Activity,Fibroblast [11],-15%
same,Activity,U-87 MG [12],-15%
same,Stability,[13],Stable
same,Activity,A-375 [14],Active
same,half-life,[15],≥ 20.9 h
same,Stability,[16],Stable
same,Activity,U-87 MG [17],Active
same,K,[18],0.038
same,K,[19],0.017
same,remaining at 1 h,[20],4.15%
same,half-life,[21],~0.0794 h
same,Drug metabolism,[22],metabolite_detected
same,Activity,Fibroblast [23],Non-toxic
same,K,[24],8.731
same,Activity,U-87 MG [25],Active
same,half-life,[26],25 h
same,Activity,A-375 [27],Active
same,Stability,[28],Stable
same,half-life,[29],18.3 h
same,Stability,[30],Stable
same,K,[31],0.016
same,K,[32],0.766
CCCC[N+](CCCC)(CCOCCOCCO[C@@H]1O[C@H](CO)[C@@H](O)[C@H](O)[C@H]1O)C[B-](F)(F)F,half-life,[2],0.265 h
same,Stability,[33],Stable
same,Stability,[34],Stable
same,Stability,[35],Stable
same,Stability,[36],Stable
same,half-life,[15],8.47 h
same,K,[18],0.102
same,K,[19],0.086
same,remaining at 1 h,[20],8.89%
same,half-life,[21],22.8 h
same,Stability,[37],Stable
same,Stability,[38],Stable
same,Drug metabolism,[39],metabolite_detected
same,K,[24],0.03
same,half-life,[26],8.07 h
same,Stability,[40],Stable
same,half-life,[29],6.82 h
same,K,[31],0.082
same,K,[32],2.617
same,Stability,[41],Stable
